Series [1] is described as follows: Antioxidant activity assessed as reduction of Fe(3)-TPTZ to Fe(2)-TPTZ complex after 5 mins by FRAP assay. The class given is functional.
The test system of series [2] is Heme. Kind of series: Binding affinity to heme (unknown origin).
Series [3] deals with Radical scavenging activity. The series can be described thus: Antioxidant activity assessed as DPPH free radical scavenging activity after 30 mins by spectrophotometry. The class given is functional.
A short description of series [4]: Antioxidant activity assessed as reduction of hydroxyl radical-mediated BSA damage at 50 uM after 30 mins by SDS-PAGE. The class given is functional.
Series [5] can be described thus: Antioxidant activity assessed as reduction of heme/H2O2-mediated BSA degradation at 50 uM after 1 hr by SDS-PAGE. The class given is functional.
Series [6] in a line: Iron chelating activity of the compound assessed as reduction of Fe(2)-TPTZ complex formation by UV-visible spectrophotometry. It counts as physicochemical.
The test system of series [7] is Heme. Kind of series: Binding affinity to heme (unknown origin) at 2 to 20 uM by optical spectroscopy.
Series [8] concerns Heme. The series can be described thus: Binding affinity to heme (unknown origin) by differential spectroscopy.
Series [9] is described as follows: Cytotoxicity against rat gastric mucosal cells assessed as cell viability at 10 to 100 uM after 16 hrs by MTT assay. It counts as cell-based, Gastric mucosa. Background: Formazan colour is commonly taken as a measure of viable cells.

This is an account of results in ChEMBL document CHEMBL3217713, “Synthesis and biological evaluation of primaquinechloroquine twin drug: a novel heme-interacting molecule prevents free heme and hydroxyl radical-mediated protein degradation” (Medchemcomm, 2013).

Active and inactive are the calls of the source. The rule behind the calls is not given here.

On to `O=C(O)c1cc(O)c(O)c(O)c1`, for which, in series [1], the Activity stood at 33.9 µM.
`CCN(CC)CCCC(C)Nc1ccnc2cc(Cl)ccc12` (stereo not drawn) registered a Ka in the series on Heme [2] of 5.5 ×10⁴ /M.
For orientation: IC50 means the point on the concentration scale where inhibition reaches its midpoint. One may read the Kd as the equilibrium constant for the complex coming apart. Turning to `COc1cc(NC(C)CCCNc2ccnc3cc(Cl)ccc23)c2ncccc2c1` (stereo not drawn), the values for the Activity entry in series [3], in series [9] and in series [1] were “Dose-dependent effect”, “Non-toxic” and 30 µM, respectively. In addition, the IC50 in series [3] was 23 µM. Further, the outcome (in series [4]; in series [5]; with Heme [7]) was Active. Moreover, the Kd in series [6] came out at 5.19 µM; on Heme [8] it was 4.34 µM. In the series on Heme [8], the Kapp came out at 2.3 ×10⁴ /M.
As for `COc1cc(NC(C)CCCN)c2ncccc2c1` (stereo not drawn) [PRIMAQUINE], the Activity result in [9] is reported as “Toxic”.
